# Counter-ions that a name gives are not always drawn.
# System: T1, 1N4R p-tau
# T1 construct: made in house; host or cells: E. coli (PIMAX system)
# Test: p-tau aggregation modulator screen of 1280-compound library (ThS fluorescence net change over 16 h);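 note: 30 µM compound with 6 µM p-tau over 16 h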
# Assay type: biochemical
# Conditions: not given
row,SMILES,ThS net change
1,CC[C@H](C)[C@H]1O[C@]2(CC[C@@H]1C)C[C@@H]1C[C@@H](C/C=C(\C)[C@@H](O[C@H]3C[C@H](OC)[C@@H](O[C@H]4C[C@H](OC)[C@@H](O)[C@H](C)O4)[C@H](C)O3)[C@@H](C)/C=C/C=C3\CO[C@@H]4[C@H](O)C(C)=C[C@@H](C(=O)O1)[C@]34O)O2 [Ivermectin],543
2,"CCC1(c2ccc(N)cc2)CCC(=O)NC1=O (centres unmarked) [Glutethimide, para-amino]",340

# Same assay, conditions: 1280-compound library screen; ThS fluorescence net change over 16 h
row,SMILES,ThS net change
1,Nc1ccn([C@@H]2O[C@H](CO)[C@@H](O)[C@@H]2O)c(=O)n1 [Cytarabine],392
2,CC(C)[N+](C)(CCC(C(N)=O)(c1ccccc1)c1ccccc1)C(C)C [Isopropamide iodide],395
3,CCCC[N+]1(C)[C@@H]2C[C@@H](OC(=O)[C@H](CO)c3ccccc3)C[C@H]1[C@@H]1O[C@@H]12.[Br-] (some centres unmarked) [Butylscopolammonium (n-) bromide],388

# Same assay, conditions: 1280-compound library screen; […]
row,SMILES,ThS net change
1,CC[C@@H](CO)NC(=O)[C@@H]1C=C2c3cccc4[nH]cc(c34)C[C@H]2N(C)C1 [Methylergometrine maleate],393

# Same assay, conditions: library screen, ThS fluorescence net change over 16 h with p-tau
row,SMILES,ThS net change
1,CS(=O)(=O)Nc1ccc([N+](=O)[O-])cc1Oc1ccccc1 [Nimesulide],288

# Same assay, conditions: p-tau aggregation modulator screen of 1280-compound library; ThS fluorescence net change
row,SMILES,ThS net change
1,CCn1cc(C(=O)O)c(=O)c2cnc(N3CCNCC3)nc21 [Pipemidic acid],377
2,CN(C)C(=O)Oc1cc(OC(=O)N(C)C)cc(C(O)CNC(C)(C)C)c1.Cl (centres unmarked) [Bambuterol hydrochloride],336
3,CC[C@H]1OC(=O)[C@H](C)[C@@H](O[C@H]2C[C@@](C)(OC)[C@@H](O)[C@H](C)O2)[C@H](C)[C@@H](O[C@@H]2O[C@H](C)C[C@H](N(C)C)[C@H]2O)[C@](C)(O)C[C@@H](C)/C(=N\OCOCCOC)[C@H](C)[C@@H](O)[C@]1(C)O [Roxithromycin],366
4,OC(Cn1cncn1)(Cn1cncn1)c1ccc(F)cc1F [Fluconazole],374
5,Cc1c(N(C)C)c(=O)n(-c2ccccc2)n1C [Amidopyrine],368
6,CC1=NS(=O)(=O)c2cc(Cl)ccc2N1 [Diazoxide],354

# Same assay, conditions: p-tau aggregation modulator screen of 1280-compound library; […]
row,SMILES,ThS net change
1,CCC1=C[C@@H]2C[N@]3CCc4c([nH]c5ccccc45)[C@@](C(=O)OC)(C2)[C@@H]13 [Catharanthine],374
2,CN1C[C@H](C(=O)N[C@]2(C)O[C@@]3(O)[C@@H]4CCCN4C(=O)[C@H](Cc4ccccc4)N3C2=O)CC2c3cccc4[nH]cc(c34)C[C@H]21.CN1C[C@H](C(=O)N[C@]2(C)O[C@@]3(O)[C@@H]4CCCN4C(=O)[C@H](Cc4ccccc4)N3C2=O)C[C@@H]2c3cccc4[nH]cc(c34)C[C@H]21.O=C(O)C(O)C(O)C(=O)O (some centres unmarked) [Dihydroergotamine tartrate],342

# Same assay, conditions: p-tau aggregation modulator screen of the compound library, ThS fluorescence net change
row,SMILES,ThS net change
1,CC(=O)Oc1ccccc1C(=O)O [Acetylsalicylic acid],492
2,CCCC1C(=O)N2C(N(C)C)=Nc3ccc(C)cc3N2C1=O (centres unmarked) [Azapropazone],429
3,O=C(Cn1ccnc1[N+](=O)[O-])NCCO [Etanidazole],461
4,CCOC1O[C@H]([C@@H](COCc2ccccc2)OCc2ccccc2)[C@H](OCc2ccccc2)[C@H]1O (some centres unmarked) [Tribenoside],690
5,CCOc1ccc2c(c1)C(C)=CC(C)(C)N2 [Ethoxyquin],460
6,CNc1ncnc2c1ncn2[C@@H]1O[C@H](CO)[C@@H](O)[C@H]1O [N6-methyladenosine],416
7,"CCOC(=O)O[C@]1(C(=O)COC(=O)CC)CC[C@H]2[C@@H]3CCC4=CC(=O)C=C[C@]4(C)[C@H]3[C@@H](O)C[C@@]21C [Prednicarbate, prednicarbate]",910
8,Cc1cc(C(C#N)c2ccc(Cl)cc2)c(Cl)cc1NC(=O)c1cc(I)cc(I)c1O (centres unmarked) [Closantel],423
9,O=C1[C@H]2CCCC[C@H]2C(=O)N1CCCCN1CCN(c2nsc3ccccc23)CC1 [Perospirone],426
10,CCN1CC(CCN2CCOCC2)C(c2ccccc2)(c2ccccc2)C1=O.Cl (centres unmarked) [Doxapram hydrochloride],418
11,CN(C/C=C/C#CC(C)(C)C)Cc1cccc2ccccc12 [Terbinafine],506

# Source: paper PMC7539012, “Hyperphosphorylated tau aggregation and cytotoxicity modulators screen identified prescription drugs linked to Alzheimer's disease and cognitive functions” (Scientific Reports, 2020)
